Measured values as given in US20250352550A1, “SUBSTITUTED FUROPYRIDINES FOR THERAPEUTIC USE” (MASARYKOVA UNIVERZITA, priority 2022, published 2025).

Tests used:
Format in all cases: biochemical
[1] = biological target: T1, DDR1 (Homo sapiens, UniProt Q08345); assay: HotSpot radiometric kinase assay (Reaction Biology), DDR1; conditions: 200 nM kinase, substrate IRS1tide 20 μM, 33P-ATP, 120 minutes at room temperature
T1 construct: purchased Reaction Biology
How it was run: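 Radiometric filter-binding assay: kinase and substrate in 20 mM HEPES pH 7.5, 10 mM MgCl2, 1 mM EGTA, 2 mM DTT, 1% DMSO. Reaction started with ^33P-ATP (0.01 μCi/μL final), run 120 minutes at room temperature. Activity expressed as percent of DMSO control; IC50 from curve fits.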

[2] = biological target: T2, KHS/MAP4K5 (Homo sapiens, UniProt Q9Y4K4); assay: HotSpot radiometric kinase assay (Reaction Biology), KHS/MAP4K5; conditions: 1.5 nM kinase, substrate MBP 20 μM, 33P-ATP, 120 minutes at room temperature
T2 construct: purchased Reaction Biology
T2 sequence (Q9Y4K4 whole entry): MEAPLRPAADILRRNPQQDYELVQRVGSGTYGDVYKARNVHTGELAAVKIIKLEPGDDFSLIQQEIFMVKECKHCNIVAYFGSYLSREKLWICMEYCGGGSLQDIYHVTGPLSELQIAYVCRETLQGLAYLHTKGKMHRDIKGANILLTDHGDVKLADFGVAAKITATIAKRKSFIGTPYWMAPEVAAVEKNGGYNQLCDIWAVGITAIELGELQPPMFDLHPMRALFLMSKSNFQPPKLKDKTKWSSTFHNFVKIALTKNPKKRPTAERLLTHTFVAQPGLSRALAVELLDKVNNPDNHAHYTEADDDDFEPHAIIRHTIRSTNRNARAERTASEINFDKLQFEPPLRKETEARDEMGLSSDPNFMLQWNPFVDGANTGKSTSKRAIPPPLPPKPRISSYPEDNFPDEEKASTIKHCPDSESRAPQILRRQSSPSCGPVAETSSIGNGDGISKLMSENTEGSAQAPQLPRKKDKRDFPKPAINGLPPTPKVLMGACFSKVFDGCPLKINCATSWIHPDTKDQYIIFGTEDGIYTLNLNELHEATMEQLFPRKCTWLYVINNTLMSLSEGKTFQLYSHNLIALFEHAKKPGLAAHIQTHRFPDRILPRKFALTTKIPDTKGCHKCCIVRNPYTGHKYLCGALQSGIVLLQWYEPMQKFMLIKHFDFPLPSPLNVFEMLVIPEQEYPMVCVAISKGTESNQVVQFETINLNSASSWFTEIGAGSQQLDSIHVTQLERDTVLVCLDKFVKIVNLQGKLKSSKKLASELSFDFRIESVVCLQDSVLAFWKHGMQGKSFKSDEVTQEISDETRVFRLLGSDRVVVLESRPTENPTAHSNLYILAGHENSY
Protocol: The compounds were profiled in the HotSpot radiometric assays (Reaction Biology).
Briefly, • 1. Substrate indicated in Table 1 was dissolved in freshly prepared reaction buffer (20 mM HEPES (pH 7.5), 10 mM MgCl2, 1 mM EGTA, 0.01% Brij35, 0.02 mg/ml BSA, 0.1 mM Na3VO4, 2 mM DTT, 1% DMSO) at the concentration indicated in Table 1. • 2. Corresponding kinase (concentration indicated in Table 1) was added and the mixture was gently mixed. • 3. Tested compound dissolved in DMSO was added into the kinase reaction mixture. • 4. ^33P-ATP (specific activity 0.01 μCi/μL final) was added into the reaction mixture to initiate the reaction. • 5. The kinase reaction was incubated for 120 minutes at room temperature. • 6. Reaction mixture was spotted onto P81 ion exchange paper (Whatman K 3698-915). • 7. The filters were extensively washed with […]. • 7. The radioactive phosphorylated substrate remaining on the filter paper was measured.
Kinase activity data were expressed as the percent remaining kinase activity in tested samples compared to the vehicle (DMSO) reactions. IC50 values and curve fits were obtained using Prism4 Software (GraphPad).
Table 2 summarizes the inhibitory activities of indicated compounds tested in the in vitro kinase assays described above.

[3] = biological target: T3, FLT3 (Homo sapiens, UniProt P36888); assay: HotSpot radiometric kinase assay (Reaction Biology), FLT3; conditions: 4 nM kinase, substrate ABLtide 20 μM, 33P-ATP, 120 minutes at room temperature
T3 construct: purchased Reaction Biology
T3 sequence (P36888 27-993): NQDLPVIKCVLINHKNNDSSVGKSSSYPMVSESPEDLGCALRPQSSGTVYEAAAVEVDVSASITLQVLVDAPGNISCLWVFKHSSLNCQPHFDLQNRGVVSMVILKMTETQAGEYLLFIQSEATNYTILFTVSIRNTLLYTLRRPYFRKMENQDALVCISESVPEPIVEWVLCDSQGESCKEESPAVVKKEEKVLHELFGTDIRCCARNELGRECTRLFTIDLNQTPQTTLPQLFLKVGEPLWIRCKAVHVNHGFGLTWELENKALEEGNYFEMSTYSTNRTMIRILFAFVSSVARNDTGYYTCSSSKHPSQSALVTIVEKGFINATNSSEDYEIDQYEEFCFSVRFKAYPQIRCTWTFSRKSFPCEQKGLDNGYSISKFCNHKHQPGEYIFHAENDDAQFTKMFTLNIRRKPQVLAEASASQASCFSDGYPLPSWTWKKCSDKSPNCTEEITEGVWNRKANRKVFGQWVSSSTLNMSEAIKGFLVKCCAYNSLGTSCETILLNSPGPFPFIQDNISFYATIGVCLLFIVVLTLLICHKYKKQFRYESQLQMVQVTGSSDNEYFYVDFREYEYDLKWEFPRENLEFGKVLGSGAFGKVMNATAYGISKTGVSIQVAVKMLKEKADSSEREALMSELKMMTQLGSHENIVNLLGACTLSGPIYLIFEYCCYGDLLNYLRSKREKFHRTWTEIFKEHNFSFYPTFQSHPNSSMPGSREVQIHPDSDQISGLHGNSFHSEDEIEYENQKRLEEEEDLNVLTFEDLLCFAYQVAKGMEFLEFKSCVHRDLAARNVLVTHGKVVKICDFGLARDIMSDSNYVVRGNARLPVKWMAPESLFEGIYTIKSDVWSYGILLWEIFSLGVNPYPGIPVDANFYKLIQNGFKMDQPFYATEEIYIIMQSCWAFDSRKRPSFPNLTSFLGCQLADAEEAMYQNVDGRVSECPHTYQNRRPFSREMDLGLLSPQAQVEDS
How it was run: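 Radiometric filter-binding assay with kinase and substrate in HEPES pH 7.5 buffer containing MgCl2, EGTA, Brij35, BSA, Na3VO4, DTT and 1% DMSO, started with ^33P-ATP and run 120 min at room temperature. Phosphorylated substrate on P81 paper counted; activity expressed as % of DMSO control, IC50 from curve fits.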

T1 sequence (Q08345 19-913): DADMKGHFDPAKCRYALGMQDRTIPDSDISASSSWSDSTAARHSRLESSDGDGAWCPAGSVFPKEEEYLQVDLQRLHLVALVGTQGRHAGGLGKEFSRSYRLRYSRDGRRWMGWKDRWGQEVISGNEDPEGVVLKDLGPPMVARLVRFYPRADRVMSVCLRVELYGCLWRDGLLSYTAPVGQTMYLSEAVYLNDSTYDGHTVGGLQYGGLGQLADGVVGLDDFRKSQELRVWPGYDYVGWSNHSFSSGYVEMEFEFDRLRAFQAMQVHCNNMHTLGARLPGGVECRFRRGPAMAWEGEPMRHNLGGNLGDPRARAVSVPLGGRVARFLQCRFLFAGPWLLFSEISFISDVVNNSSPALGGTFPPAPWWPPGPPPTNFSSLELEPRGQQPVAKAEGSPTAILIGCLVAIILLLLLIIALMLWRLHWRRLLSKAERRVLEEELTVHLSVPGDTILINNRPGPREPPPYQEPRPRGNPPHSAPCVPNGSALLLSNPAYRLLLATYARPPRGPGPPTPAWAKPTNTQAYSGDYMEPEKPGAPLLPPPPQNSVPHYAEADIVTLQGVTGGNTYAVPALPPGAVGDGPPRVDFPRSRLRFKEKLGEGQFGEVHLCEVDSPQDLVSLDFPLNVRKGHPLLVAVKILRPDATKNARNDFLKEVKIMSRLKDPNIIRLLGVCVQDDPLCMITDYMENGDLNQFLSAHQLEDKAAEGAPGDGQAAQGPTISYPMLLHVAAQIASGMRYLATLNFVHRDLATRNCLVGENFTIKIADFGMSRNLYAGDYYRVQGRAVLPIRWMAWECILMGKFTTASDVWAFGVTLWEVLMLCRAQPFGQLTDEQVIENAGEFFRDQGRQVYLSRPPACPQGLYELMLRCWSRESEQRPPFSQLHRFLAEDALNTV

CN(C)S(=O)(=O)c1cccc(-c2coc3cc(-c4ccc(N5CCNCC5)cc4)cnc23)c1 [Preparative Example 61, N,N-dimethyl-3-(6-(4-(piperazin-1-yl)phenyl)furo[3,2-b]pyridin-3-yl)benzenesulfonamide]
IC50 [1]: 272 nM | IC50 [2]: 896 nM | IC50 [3]: 73 nM

NCc1cccc(-c2coc3cc(-c4ccc(N5CCNCC5)cc4)cnc23)c1 [Preparative Example 87, (3-(6-(4-(piperazin-1-yl)phenyl)furo[3,2-b]pyridin-3-yl)phenyl)methanamine]
IC50 [1]: 301 nM | IC50 [2]: 456 nM | IC50 [3]: 62 nM

CN1CCN(c2ccc(-c3cnc4c(-c5cccc(CO)c5)coc4c3)cc2)CC1 [Preparative Example 90, (3-(6-(4-(4-methylpiperazin-1-yl)phenyl)furo[3,2-b]pyridin-3-yl)phenyl)methanol]
IC50 [1]: 163 nM | IC50 [2]: 394 nM | IC50 [3]: 24 nM

CC(=O)OCc1cccc(-c2coc3cc(-c4ccc(N5CCN(C)CC5)cc4)cnc23)c1 [Preparative Example 94, 3-(6-(4-(4-methylpiperazin-1-yl)phenyl)furo[3,2-b]pyridin-3-yl)benzyl acetate]
IC50 [1]: 155 nM | IC50 [2]: 641 nM | IC50 [3]: 77 nM

CNc1cccc(-c2coc3cc(-c4ccc(N5CCN(C)CC5)cc4)cnc23)c1 [Preparative Example 110, N-methyl-3-(6-(4-(4-methylpiperazin-1-yl)phenyl)furo[3,2-b]pyridin-3-yl)aniline]
IC50 [1]: 187 nM | IC50 [2]: 934 nM | IC50 [3]: 53 nM

c1cc(SC2CCC2)cc(-c2coc3cc(-c4ccc(N5CCNCC5)cc4)cnc23)c1 [Preparative Example 164, 3-(3-(cyclobutylthio)phenyl)-6-(4-(piperazin-1-yl)phenyl)furo[3,2-b]pyridine]
IC50 [1]: 361 nM | IC50 [2]: 737 nM | IC50 [3]: 151 nM

Fc1cccc(-c2coc3cc(-c4ccc(N5CCNCC5)cc4)cnc23)c1 [Preparative Example 170, 3-(3-fluorophenyl)-6-(4-(piperazin-1-yl)phenyl)furo[3,2-b]pyridine]
IC50 [1]: 120 nM | IC50 [2]: 889 nM | IC50 [3]: 31 nM

CN1CCN(c2ccc(-c3cnc4c(-c5cc(C(N)=O)ccc5F)coc4c3)cc2)CC1 [Preparative Example 211, 4-fluoro-3-(6-(4-(4-methylpiperazin-1-yl)phenyl)furo[3,2-b]pyridin-3-yl)benzamide]
IC50 [1]: 528 nM | IC50 [2]: 167 nM | IC50 [3]: 21 nM

CN1CCN(c2ccc(-c3cnc4c(-c5cc(F)cc(C(N)=O)c5)coc4c3)cc2)CC1 [Preparative Example 219, 3-fluoro-5-{6-[4-(4-methylpiperazin-1-yl)phenyl]furo[3,2-b]pyridin-3-yl}benzamide]
IC50 [1]: 27 nM | IC50 [2]: 756 nM | IC50 [3]: 56 nM

CN1CCN(c2ccc(-c3cnc4c(Oc5ccccc5)coc4c3)cc2)CC1 [Preparative Example 229, 1-methyl-4-(4-{3-phenoxyfuro[3,2-b]pyridin-6-yl}phenyl)piperazine]
IC50 [1]: 308 nM | IC50 [2]: 284 nM | IC50 [3]: 729 nM
